The supplement of paper PMC11127212

What was measured:
[1] = retention time on BEH HILIC column (20 min gradient, 0.4 mL/min); higher = later elution; conditions: LC: HILIC
Method: (§1)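 Reference standards (20-100 uM) were separated by HILIC UPLC (BEH HILIC, 45 °C): acidic pH 3.0 ammonium formate/formic acid for ESI+ and basic pH 9.0 ammonium acetate/ammonia for ESI-. They were analysed on a Synapt G2-Si traveling-wave IMS-QTOF with nitrogen drift gas (WH 30 V; WV 800 m/s in ESI+ and 1000 m/s in ESI-).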

[2] = collision cross section (TWIMS, N2) of ion [M+Na-2H]-; higher = larger gas-phase ion cross section; conditions: ionization: ESI negative; LC: HILIC, pH 9.0 ammonium acetate
Method: as §1, with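 “ESI-). CCS (TWCCSN2, Å2) was calibrated with Major Mix IMS/TOF and LockCCS leucine enkephalin; inter-day RSD was <1%.” for “ESI-).”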

[3] = collision cross section (TWIMS, N2) of ion [M+Na]+; higher = larger gas-phase ion cross section; conditions: ionization: ESI positive; LC: HILIC, pH 3.0 ammonium formate
How it was run: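 Standards (20–100 µM working solutions) were separated on a BEH HILIC column at 45 °C, using an acetonitrile/water gradient with 10 mM ammonium formate and 0.125% formic acid (pH 3.0) at 0.4 mL/min. Ions were formed by positive electrospray and measured on a Synapt G2-Si traveling-wave ion mobility QTOF (nitrogen, wave velocity 800 m/s, wave height 30 V). Nitrogen collision cross section (Å2) was calibrated with Major Mix IMS/TOF solution and corrected in real time against leucine enkephalin.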

[4] = collision cross section (TWIMS, N2) of ion [M-H]-; higher = larger gas-phase ion cross section; conditions: ionization: ESI negative; LC: HILIC, pH 9.0 ammonium acetate
Method: as §1

[5] = collision cross section (TWIMS, N2) of ion [M]+; higher = larger gas-phase ion cross section; conditions: ionization: ESI positive; LC: HILIC, pH 3.0 ammonium formate
Method: as §1, with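 “ESI-). CCS (TWCCSN2, Å2) was calibrated with Major Mix IMS/TOF and LockCCS leucine enkephalin; inter-day RSD was <1%.” for “ESI-).”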

[6] = ionization: ESI negative, pH 9.0 ammonium acetate
[7] = ionization: ESI positive, pH 3.0 ammonium formate

Structure (SMILES)	retention time on BEH HILIC column [1, 6] [min]	collision cross section [2] [Å²]	retention time on BEH HILIC column [1, 7] [min]	collision cross section [3] [Å²]	collision cross section [4] [Å²]	collision cross section [5] [Å²]
O=C(O)c1ccc(C(=O)O)o1 [2,5-furandicarboxylic acid]	7.28	129.41				
O=C(O)Cc1cccc(O)c1 [3-hydroxyphenylacetic acid]	0.99	132.19	0.99	139.98		
C[C@@H](CCC(=O)O)CC(=O)O [3-methyladipic acid]	0.93	135.93	1.05	136.22	131.84	
C/C(=C\C(=O)O)CC(=O)O [3-methylglutaconic acid]	1.75	131.48	1.45	132.11		
CCCCCCCC/C=C\CCCCCCCC(=O)O [Oleic acid]	0.75	184.54	0.73	181.57	179.19	
Cc1ncc(C[n+]2csc(CCO)c2C)c(N)n1 [Thiamine]	8.94		8.96		164.85	162.11
